Measurements reported in patent publication US20260327628A1, “AN RNA APTAMER THAT BINDS TO ASP7967 OR AN ANALOGUE THEREOF” (priority 2022, published 2026).
Where “and” joins values, the source holds several entries; their conditions need not be identical. Equal values may be shown once. Entries after “also recorded” stand apart in the source; their conditions may differ.

Assays:
hEPO expression in mice = assay: In vivo hEPO assay in mice injected with AAV8 vectors; parameters: species or system BALB/c cAJc1 mice
Protocol: For AAV production, 293T cells seeded in cellstack5 (Corning) were cotransfected using PEI MAX (Polysciences Inc) with 227.9 μg of the plasmid encoding AAV8 replication and capsid proteins, 455.8 μg of the plasmid encoding helper proteins and 227.9 μg of the pAAV-CMV-hEPO-a8c or -control. At 6 days after transfection, cells and supernatants were harvested, then filtered and concentrated by KrosFlo Research Ili (Spectrum Labs, Inc) for AAV purification by affinity chromatography using AKTA avant 25 (GE healthcare). Then, the virus solutions were ultracentrifuged and dialyzed. Titers of the AAV solutions were determined by quantitative PCR using the AAVpro Titration Kit (for Real-Time PCR) Ver.2 (Takara).
For in vivo animal experiments, 7-week-old male BALB/c cAJc1 mice (CLEA Japan Inc.) were intravenously injected with 200 μl of PBS (as the control group) or purified AAV8 particles (3.0×10^10 virus genome (vg) per mouse) carrying hEPO gene with or without the CPP-a8c-AC17-4 riboswitch. After 13 days from AAV injection, mice were subjected to 24 μl blood collection from tail vein and the blood samples were immediately diluted with 96 μl. At 24 h after the blood collection, the mice were orally administrated 100 mg kg^−1 of ASP7967 in 0.5% methyl cellulose (FUJIFILM Wako Pure Chemical Corp) or 0.5% methyl cellulose as the vehicle solution. At 2, 4, 6, 8 and 24 h after the ASP7967 administration, blood samples were collected as described above. The blood samples were incubated on ice, then centrifuged at 1,200×g for 15 min at 4° C. to collect serum samples. The serum samples were stored at −80° C. and used for measurement of serum hEPO concentration by ELISA.
Next, we studied the riboswitch potency and functionality in vivo. […] Mice were intravenously injected with viral vectors AAV8-CMV-hEPO-control, AAV8-CMV-hEPO-a8c-AC17-4-CPP, or saline (WT). Two weeks after AAV injection, 100 mg kg^−1 dose of ASP7967 was orally administered to induce expression from the riboswitch-regulated vector. Blood was drawn before and at multiple time points after the oral administration (FIG. 9c). Secreted hEPO levels in the serum of the mice injected with the control AAV (AAV8-CMV-hEPO-control) were around 550 mIU ml^−1, and administration of 100 mg kg^−1 dose of the ligand had no effect during the observed time period (FIG. 9d, upper right). On the other hand, upon administration of 100 mg kg^−1 dose of the ligand, hEPO secretion levels were induced by riboswitch-regulated vector (AAV8-CMV-hEPO-a8c-AC17-4-CPP) reaching approximately 115 mIU mL-1 at 6-8 h postdosing, corresponding to a 7.2-fold increase over the mice dosed with the vehicle (FIG. 9d, lower left).

cpAC17-4 RNA aptamer = assay: Affinity measurement by SPR, cpAC17-4 immobilized chip; format: binding; conditions: cpAC17-4 with 3′ poly(A) tail
Protocol: Affinity measurements of the aptamers with the ligands by SPR were performed as described by Chang et al.^53 with some modifications. Experiments were performed on Biacore T200 (Cytiva) at 25° C. For immobilization of the capture DNA (5′-/5AmMC6/[…]-3′ (SEQ ID NO: 32),/5AmMC6/: 5′ amino modifier C6, IDT), 1×HBS-N (10 mM HEPES, pH 7.4, 150 mM NaCl) was used as the running buffer. CM5 chip surface was washed by two injections of NaOH/NaCl solution (25 mM NaOH, 1 M NaCl) at 20 μl min^−1 for 30 s. […]
The dsDNA templates for in vitro transcription of the aptamers were prepared by primer extension of two oligo DNAs using Q5 High-Fidelity DNA Polymerase (NEB). […] RNA concentrations were determined by absorbance at 260 nm according to OligoCalc^54. […] An aptamer ligand was injected at 30 μl min^−1 for 120 s to monitor association, and then the dissociation kinetics was monitored for 180 s in the SPR running buffer. […] The raw data were analysed by Biacore T200 Evaluation Software 1.0 using 1:1 Langmuir interaction model. […] Dissociation constant (KD) was determined from the ratio of the association and the dissociation rate constants (KD=koff/kon) or by equilibrium analysis. […]

Compound	hEPO secretion level (serum) (hEPO expression in mice; 100 mg kg^−1 oral, 6-8 h postdosing, AAV8-CMV-hEPO-a8c-AC17-4-CPP)	increase of serum hEPO over vehicle (hEPO expression in mice; 100 mg kg^−1 oral, AAV8-CMV-hEPO-a8c-AC17-4-CPP)	effect of ligand on serum hEPO in mice injected with control AAV (hEPO expression in mice; 100 mg kg^−1 oral, AAV8-CMV-hEPO-control)	serum hEPO / transgene expression as ligand concentration declines (hEPO expression in mice; 100 mg kg^−1 oral, after 6-8 h)	hEPO after readministration of the ligand (hEPO expression in mice; readministration, data not shown)	Kd (cpAC17-4 RNA aptamer)
Fc1ccc(Nc2nc(NCc3ncccn3)nc(Nc3ccc(F)cc3)n2)cc1 [ASP7967]	approximately 115 mIU mL-1	7.2 fold and ~ 7.2 fold	no effect	subsequently decreased; also recorded: diminished as the ligand concentration in the target tissue declined	reactivation of hEPO	
Fc1ccc(Nc2nc(NCc3ncccn3)nc(Nc3ccccc3)n2)cc1 [ASP2905, reference compound]						30 nM
